The test addresses P2X7 (Homo sapiens (Human), UniProt Q99572). As to the kind of experiment: P2X7 antagonism in human PBMCs (LPS + Bz-ATP induced IL-1β release, ELISA). It is filed as cell-based. Conditions: 10 μM compound, LPS 30 ng/ml + 0.5 mM Bz-ATP. For orientation: In an ELISA, binding on a coated surface is turned into a signal by an enzyme label.

The structures appear in SMILES notation.

Sequence of P2X7 (Q99572 whole entry): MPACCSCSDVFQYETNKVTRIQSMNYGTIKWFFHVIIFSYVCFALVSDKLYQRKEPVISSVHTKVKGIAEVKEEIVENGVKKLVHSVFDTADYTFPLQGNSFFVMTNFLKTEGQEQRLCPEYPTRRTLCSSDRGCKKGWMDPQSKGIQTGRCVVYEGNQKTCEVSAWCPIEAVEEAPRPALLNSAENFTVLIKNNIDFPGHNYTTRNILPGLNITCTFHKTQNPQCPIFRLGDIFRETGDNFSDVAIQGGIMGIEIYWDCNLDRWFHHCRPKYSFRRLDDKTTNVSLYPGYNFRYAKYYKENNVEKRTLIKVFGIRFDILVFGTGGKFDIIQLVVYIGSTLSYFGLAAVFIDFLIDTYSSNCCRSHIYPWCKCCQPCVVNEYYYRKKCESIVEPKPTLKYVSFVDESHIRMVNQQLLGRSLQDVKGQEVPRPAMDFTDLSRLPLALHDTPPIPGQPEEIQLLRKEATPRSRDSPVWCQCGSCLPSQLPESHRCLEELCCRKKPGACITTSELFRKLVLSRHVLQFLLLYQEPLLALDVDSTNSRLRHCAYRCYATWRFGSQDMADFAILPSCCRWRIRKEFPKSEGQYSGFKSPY
Procedure: Human blood was collected using a blood donor program. PBMCs were isolated from blood using a Ficoll density gradient technique. Briefly, blood was laid on Ficoll solution and centrifuged at RT for 20 minutes at 2000 rpm. The buffy layer (between red blood cells and plasma) was carefully collected by aspiration, washed with PBS and centrifuged again at 1500 rpm for 15 minutes. The resulting cell pellet was washed and plated on 96 well-plates for experiments. […] Lipopolysaccharide (LPS) (30 ng/ml) was added to each well and incubated for 1 hour. Test compounds were then added and incubated for 30 minutes. The P2X7 agonist, 2′(3′)-O-(4-benzoylbenzoyl) adenosine 5′ triphosphate (Bz-ATP) was then added at a final concentration of 0.5 mM (PBMC) or 1 mM (blood). Cells were incubated for an additional 1.5 hours. At that point, supernatant was collected and stored for IL-1β assay using manufacturer's protocol for enzyme-linked immunosorbent assay (ELISA). Data was expressed as percent control, where control is defined as the difference in IL-1β release in LPS+Bz-ATP samples and LPS only samples. Data was plotted as response (% control) versus concentration to generate IC50 values.

Consider `CC1c2nn(COCC[Si](C)(C)C)c(-c3ncc(F)cn3)c2CCN1C(=O)c1cccc(C(F)(F)F)c1Cl` (stereo not drawn) [Example 303, (2-chloro-3-(trifluoromethyl)phenyl)(3-(5-fluoropyrimidin-2-yl)-7-methyl-2-((2-(trimethylsilyl)ethoxy)methyl)-4,5-dihydro-2H-pyrazolo[3,4-c]pyridin-6(7H)-yl)methanone], for which the “PBMC 10 μM (% control)” value is reported as −1.6 % control.

In the case of `C[C@@H]1c2nnn(-c3ccc(F)cc3)c2C[C@H](C)N1C(=O)c1cccc(C(F)(F)F)c1Cl` [Example 287, (2-chloro-3-(trifluoromethyl)phenyl)((4R,6 S)-1-(4-fluorophenyl)-4,6-dimethyl-6,7-dihydro-1H-[1,2,3]triazolo[4,5-c]pyridin-5(4H)-yl)methanone], the “PBMC 10 μM (% control)” value was −4.1 % control.

Consider `C[C@@H]1c2ncn(-c3ccccn3)c2CCN1C(=O)c1cccc(C(F)(F)F)c1F` (single isomer, unassigned) [Example 42, (4R*)-5-{[2-Fluoro-3-(trifluoromethyl)phenyl]carbonyl}-4-methyl-1-pyridin-2-yl-4,5,6,7-tetrahydro-1H-imidazo[4,5-c]pyridine], for which the “PBMC 10 μM (% control)” value was found to be 5.8 % control.

For the molecule `CC1c2nnn(-c3ncccn3)c2CCN1C(=O)c1ccc(Cl)cc1Cl` (stereo not drawn) [Example 283, (2,4-dichlorophenyl)(4-methyl-1-(pyrimidin-2-yl)-6,7-dihydro-1H-[1,2,3]triazolo[4,5-c]pyridin-5(4H)-yl)methanone], the “PBMC 10 μM (% control)” value was −6.3 % control.

In the case of `Cc1nc(-n2nnc3c2CCN(C(=O)c2cccc(C(F)(F)F)c2Cl)C3C)ncc1F` (single isomer, unassigned) [Example 306, (S*)-(2-chloro-3-(trifluoromethyl)phenyl)(1-(5-fluoro-4-methylpyrimidin-2-yl)-4-methyl-6,7-dihydro-1H-[1,2,3]triazolo[4,5-c]pyridin-5(4H)-yl)methanone], the “PBMC 10 μM (% control)” value stood at 2.5 % control.

For `Cc1cc(C)nc(-n2nnc3c2CCN(C(=O)c2cccc(C(F)(F)F)c2Cl)C3C)n1` (stereo not drawn) [Example 253, (2-Chloro-3-(trifluoromethyl)phenyl)(1-(4,6-dimethylpyrimidin-2-yl)-4-methyl-6,7-dihydro-1H-[1,2,3]triazolo[4,5-c]pyridin-5(4H)-yl)methanone], the “PBMC 10 μM (% control)” value was −2.6 % control.

The values above are taken from patent US10150765B2, “P2X7 modulators” (Janssen Pharmaceutica NV, priority 2013, dated 2018).
